Target: T1, purified human Factor XIa (Homo sapiens, UniProt P03951)
T1 construct: purchased Haematologic Technologies
Assay: Factor XIa enzyme inhibition assay (chromogenic substrate S-2366), Ki
Format: biochemical
Conditions: substrate S-2366, pH 7.4
Procedure: The effectiveness of compounds of the present invention as inhibitors of the coagulation Factors XIa, VIIa, IXa, Xa, XIIa, plasma kallikrein, thrombin, chemytrypsin or trypsin can be determined using a relevant purified serine protease, respectively, and an appropriate synthetic substrate. The rate of hydrolysis of the chromogenic or fluorogenic substrate by the relevant serine protease was measured both in the absence and presence of compounds of the present invention. […] A decrease in the rate of absorbance or fluorescence change in the presence of inhibitor is indicative of enzyme inhibition. Such methods are known to one skilled in the art. The results of this assay are expressed as the inhibitory constant, Ki.
Factor XIa determinations were made in 50 mM HEPES buffer at pH 7.4 containing 145 mM NaCl, 5 mM KCl, and 0.1% PEG 8000 (polyethylene glycol; JT Baker or Fisher Scientific). Determinations were made using purified human Factor XIa at a final concentration of […] (Haematologic Technologies) and the synthetic substrate S-2366 (pyroGlu-Pro-Arg-pNA; CHROMOGENIX® or AnaSpec) at a concentration of 0.0002-0.001 M.
Values of Ki were determined by allowing the protease to react with the substrate in the presence of the inhibitor. Reactions were allowed to go for periods of 20-180 minutes (depending on the protease) and the velocities (rate of absorbance or fluorescence change versus time) were measured. The following relationships were used to calculate Ki values: (Vmax*S)/(Km+S) (vo−vs)/vs=I/(Ki*(1+S/Km)) for a competitive inhibitor with one binding site; or vs/vo=A+(B−A)/(1+(IC50/(I)^n)); and Ki=IC50/(1+S/Km) for a competitive inhibitor where: […]

T1 sequence (P03951 388-625 limits assumed): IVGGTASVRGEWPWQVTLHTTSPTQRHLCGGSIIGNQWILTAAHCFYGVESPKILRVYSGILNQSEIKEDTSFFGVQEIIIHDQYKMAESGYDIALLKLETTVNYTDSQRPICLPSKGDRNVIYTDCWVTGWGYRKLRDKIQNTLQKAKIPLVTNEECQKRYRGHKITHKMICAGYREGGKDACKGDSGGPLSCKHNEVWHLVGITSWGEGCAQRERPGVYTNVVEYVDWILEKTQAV
T1 sequence (P03951 19-387 partner limits assumed): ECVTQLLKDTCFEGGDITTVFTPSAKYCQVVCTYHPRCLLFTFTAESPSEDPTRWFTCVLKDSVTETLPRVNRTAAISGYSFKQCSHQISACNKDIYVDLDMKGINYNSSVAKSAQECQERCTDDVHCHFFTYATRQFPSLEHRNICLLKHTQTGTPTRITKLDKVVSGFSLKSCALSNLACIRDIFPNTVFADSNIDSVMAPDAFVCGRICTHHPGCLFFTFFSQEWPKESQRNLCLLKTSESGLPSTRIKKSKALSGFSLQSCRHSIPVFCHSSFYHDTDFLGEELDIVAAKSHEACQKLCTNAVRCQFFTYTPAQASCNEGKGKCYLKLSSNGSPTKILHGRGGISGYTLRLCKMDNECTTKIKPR

SMILES: O=C([C@H](Cc1ccccc1)n1cnc(-c2cc(Cl)ccc2-n2cc(Cl)nn2)cc1=O)N1CCN(c2ccncc2)CC1 [Example 57, (S)-6-(5-chloro-2-(4-chloro-1H-1,2,3-triazol-1-yl)phenyl)-3-(1-oxo-3-phenyl-1-(4-(pyridin-4-yl)piperazin-1-yl)propan-2-yl)pyrimidin-4(3H)-one]
- Ki: 4890 nM

SMILES: Cc1ccc2c(NC(=O)[C@H](Cc3ccccc3)n3cnc(-c4cc(Cl)ccc4-n4cc(Cl)nn4)cc3=O)noc2c1 [Example 113, (S)-2-(4-(5-chloro-2-(4-chloro-1H-1,2,3-triazol-1-yl)phenyl)-6-oxopyrimidin-1(6H)-yl)-N-(6-methylbenzo[d]isoxazol-3-yl)-3-phenylpropanamide]
- Ki: 74 nM

SMILES: CCOC(=O)Cc1ccc(NC(=O)[C@H](Cc2ccccc2)n2cnc(-c3cc(Cl)ccc3-n3cc(Cl)nn3)cc2=O)cc1 [Example 20, ethyl (S)-2-(4-(2-(4-(5-chloro-2-(4-chloro-1H-1,2,3-triazol-1-yl)phenyl)-6-oxopyrimidin-1(6H)-yl)-3-phenylpropanamido)phenyl)acetate]
- Ki: 128 nM

SMILES: O=C(NCCN1CCCC1)[C@H](Cc1ccccc1)n1cnc(-c2cc(Cl)ccc2-n2cc(Cl)nn2)cc1=O [Example 69, (S)-2-(4-(5-chloro-2-(4-chloro-1H-1,2,3-triazol-1-yl)phenyl)-6-oxopyrimidin-1(6H)-yl)-3-phenyl-N-(2-(pyrrolidin-1-yl)ethyl)propanamide]
- Ki: 7620 nM

SMILES: COC(=O)Cc1ccc(NC(=O)[C@H](Cc2ccccc2)n2cnc(-c3cc(Cl)ccc3-n3cc(Cl)nn3)cc2=O)cc1 [Example 45, methyl (S)-2-(4-(2-(4-(5-chloro-2-(4-chloro-1H-1,2,3-triazol-1-yl)phenyl)-6-oxopyrimidin-1(6H)-yl)-3-phenylpropanamido)phenyl)acetate]
- Ki: 88.2 nM

SMILES: CC1=NN=C(NC(=O)[C@H](Cc2ccccc2)n2cnc(-c3cc(Cl)ccc3-n3cc(Cl)nn3)cc2=O)SC1 [Example 107, (S)-2-(4-(5-chloro-2-(4-chloro-1H-1,2,3-triazol-1-yl)phenyl)-6-oxopyrimidin-1(6H)-yl)-N-(5-methyl-6H-1,3,4-thiadiazin-2-yl)-3-phenylpropanamide]
- Ki: 4550 nM

SMILES: CN1CCC2(CCCN(C(=O)[C@H](Cc3ccccc3)n3cnc(-c4cc(Cl)ccc4-n4cc(Cl)nn4)cc3=O)C2)C1=O (stereo partly drawn) [Example 66, 7-((S)-2-(4-(5-chloro-2-(4-chloro-1H-1,2,3-triazol-1-yl)phenyl)-6-oxopyrimidin-1(6H)-yl)-3-phenylpropanoyl)-2-methyl-2,7-diazaspiro[4.5]decan-1-one]
- Ki: 12200 nM

SMILES: CCn1nc(C)cc1NC(=O)[C@H](Cc1ccccc1)n1cnc(-c2cc(Cl)ccc2-n2cc(Cl)nn2)cc1=O [Example 44, (S)-2-(4-(5-chloro-2-(4-chloro-1H-1,2,3-triazol-1-yl)phenyl)-6-oxopyrimidin-1(6H)-yl)-N-(1-ethyl-3-methyl-1H-pyrazol-5-yl)-3-phenylpropanamide]
- Ki: 395 nM

SMILES: O=C(NC1CCC(O)CC1)[C@H](Cc1ccccc1)n1cnc(-c2cc(Cl)ccc2-n2cc(Cl)nn2)cc1=O (stereo partly drawn) [Example 103, (S)-2-(4-(5-chloro-2-(4-chloro-1H-1,2,3-triazol-1-yl)phenyl)-6-oxopyrimidin-1(6H)-yl)-N-(4-hydroxycyclohexyl)-3-phenylpropanamide]
- Ki: 127 nM

SMILES: O=C1CN(C(=O)[C@H](Cc2ccccc2)n2cnc(-c3cc(Cl)ccc3-n3cc(Cl)nn3)cc2=O)CCN1 [Example 53, (S)-6-(5-chloro-2-(4-chloro-1H-1,2,3-triazol-1-yl)phenyl)-3-(1-oxo-1-(3-oxopiperazin-1-yl)-3-phenylpropan-2-yl)pyrimidin-4(3H)-one]
- Ki: 7620 nM

SMILES: CN(C)CCCNC(=O)[C@H](Cc1ccccc1)n1cnc(-c2cc(Cl)ccc2-n2cc(Cl)nn2)cc1=O [Example 90, (S)-2-(4-(5-chloro-2-(4-chloro-1H-1,2,3-triazol-1-yl)phenyl)-6-oxopyrimidin-1(6H)-yl)-N-(3-(dimethylamino)propyl)-3-phenylpropanamide]
- Ki: 5920 nM

SMILES: O=C(O)c1ccc(NC(=O)C(Cc2ccccc2)N2CCC(c3c(F)ccc(Cl)c3F)=CC2=O)cc1 (stereo not shown) [Example 129, 4-{2-[4-(3-Chloro-2,6-difluorophenyl)-6-oxo-1,2,3,6-tetrahydropyridin-1-yl]-3-phenylpropanamido}benzoic Acid]
- Ki: 77 nM

SMILES: O=C([C@H](Cc1ccccc1)n1cnc(-c2cc(Cl)ccc2-n2cc(Cl)nn2)cc1=O)N1CCC(c2ccccc2)CC1 [Example 73, (S)-6-(5-chloro-2-(4-chloro-1H-1,2,3-triazol-1-yl)phenyl)-3-(1-oxo-3-phenyl-1-(4-phenylpiperidin-1-yl)propan-2-yl)pyrimidin-4(3H)-one]
- Ki: 4440 nM

SMILES: NS(=O)(=O)c1ccc(CNC(=O)[C@H](Cc2ccccc2)n2cnc(-c3cc(Cl)ccc3-n3cc(Cl)nn3)cc2=O)cc1 [Example 64, (S)-2-(4-(5-chloro-2-(4-chloro-1H-1,2,3-triazol-1-yl)phenyl)-6-oxopyrimidin-1(6H)-yl)-3-phenyl-N-(4-sulfamoylbenzyl)propanamide]
- Ki: 1270 nM

SMILES: O=C(Nc1ccnc2ccc(C(F)(F)F)cc12)[C@H](Cc1ccccc1)n1cnc(-c2cc(Cl)ccc2-n2cc(Cl)nn2)cc1=O [Example 123, (S)-2-(4-(5-chloro-2-(4-chloro-1H-1,2,3-triazol-1-yl)phenyl)-6-oxopyrimidin-1(6H)-yl)-3-phenyl-N-(6-(trifluoromethyl)quinolin-4-yl)propanamide]
- Ki: 7150 nM

SMILES: O=C(NCc1nccs1)[C@H](Cc1ccccc1)n1cnc(-c2cc(Cl)ccc2-n2cc(Cl)nn2)cc1=O [Example 50, (S)-2-(4-(5-chloro-2-(4-chloro-1H-1,2,3-triazol-1-yl)phenyl)-6-oxopyrimidin-1(6H)-yl)-3-phenyl-N-(thiazol-2-ylmethyl)propanamide]
- Ki: 6590 nM

SMILES: CCOC(=O)c1ccc(NC(=O)[C@H](Cc2ccccc2)n2cnc(-c3cc(Cl)ccc3-n3cc(Cl)nn3)cc2=O)cc1 [Example 42, ethyl (S)-4-(2-(4-(5-chloro-2-(4-chloro-1H-1,2,3-triazol-1-yl)phenyl)-6-oxopyrimidin-1(6H)-yl)-3-phenylpropanamido)benzoate]
- Ki: 196 nM

SMILES: CC(C)c1nnc2n1CCN(C(=O)[C@H](Cc1ccccc1)n1cnc(-c3cc(Cl)ccc3-n3cc(Cl)nn3)cc1=O)C2 [Example 67, (S)-6-(5-chloro-2-(4-chloro-1H-1,2,3-triazol-1-yl)phenyl)-3-(1-(3-isopropyl-5,6-dihydro-[1,2,4]triazolo[4,3-a]pyrazin-7(8H)-yl)-1-oxo-3-phenylpropan-2-yl)pyrimidin-4(3H)-one]
- Ki: 7370 nM

SMILES: O=C(Nc1cccc2[nH]ccc12)[C@H](Cc1ccccc1)n1cnc(-c2cc(Cl)ccc2-n2cc(Cl)nn2)cc1=O [Example 26, (S)-2-(4-(5-chloro-2-(4-chloro-1H-1,2,3-triazol-1-yl)phenyl)-6-oxopyrimidin-1(6H)-yl)-N-(1H-indol-4-yl)-3-phenylpropanamide]
- Ki: 22.3 nM

SMILES: CC(C)CCNC(=O)[C@H](Cc1ccccc1)n1cnc(-c2cc(Cl)ccc2-n2cc(Cl)nn2)cc1=O [Example 87, (S)-2-(4-(5-chloro-2-(4-chloro-1H-1,2,3-triazol-1-yl)phenyl)-6-oxopyrimidin-1(6H)-yl)-N-isopentyl-3-phenylpropanamide]
- Ki: 210 nM

SMILES: O=C1NCc2cc(F)c(NC(=O)[C@H](Cc3ccccc3)n3cnc(-c4cc(Cl)ccc4-n4cc(Cl)nn4)cc3=O)cc21 [Example 38, (S)-2-(4-(5-chloro-2-(4-chloro-1H-1,2,3-triazol-1-yl)phenyl)-6-oxopyrimidin-1(6H)-yl)-N-(6-fluoro-3-oxoisoindolin-5-yl)-3-phenylpropanamide]
- Ki: 98.4 nM

SMILES: Cc1ncn(-c2ccc(NC(=O)[C@H](Cc3ccccc3)n3cnc(-c4cc(Cl)ccc4-n4cc(Cl)nn4)cc3=O)cn2)n1 [Example 39, (S)-2-(4-(5-chloro-2-(4-chloro-1H-1,2,3-triazol-1-yl)phenyl)-6-oxopyrimidin-1(6H)-yl)-N-(6-(3-methyl-1H-1,2,4-triazol-1-yl)pyridin-3-yl)-3-phenylpropanamide]
- Ki: 110 nM

SMILES: O=C(Nc1ncnc2[nH]ncc12)[C@H](Cc1ccccc1)n1cnc(-c2cc(Cl)ccc2-n2cc(Cl)nn2)cc1=O [Example 109, (S)-2-(4-(5-chloro-2-(4-chloro-1H-1,2,3-triazol-1-yl)phenyl)-6-oxopyrimidin-1(6H)-yl)-3-phenyl-N-(1H-pyrazolo[3,4-d]pyrimidin-4-yl)propanamide]
- Ki: 150 nM

SMILES: COc1ccc(CNC(=O)[C@H](Cc2ccccc2)n2cnc(-c3cc(Cl)ccc3-n3cc(Cl)nn3)cc2=O)cc1 [Example 75, (S)-2-(4-(5-chloro-2-(4-chloro-1H-1,2,3-triazol-1-yl)phenyl)-6-oxopyrimidin-1(6H)-yl)-N-(4-methoxybenzyl)-3-phenylpropanamide]
- Ki: 1220 nM

SMILES: N#Cc1ccc(NC(=O)[C@H](Cc2ccccc2)n2cnc(-c3cc(Cl)ccc3-n3cc(Cl)nn3)cc2=O)cc1F [Example 92, (S)-2-(4-(5-chloro-2-(4-chloro-1H-1,2,3-triazol-1-yl)phenyl)-6-oxopyrimidin-1(6H)-yl)-N-(4-cyano-3-fluorophenyl)-3-phenylpropanamide]
- Ki: 126 nM

Reference: patent publication US10336730B2, “Substituted glycine derived FXIA inhibitors” (BRISTOL-MYERS SQUIBB COMPANY, priority 2015, dated 2019)
